Where a name gives a salt, the structure may show the parent alone.

This note sets out measurements from US20190233409A1, “SUBSTITUTED 2,3,4,5-TETRAHYDRO-1H-PYRIDO[4,3-B]INDOLES, METHODS FOR USE THEREOF” (priority 2017, published 2019).

The test system of the first assay is calcium canals regulated by the intracellular calcium depot. The assay is described as follows: Histamine-induced calcium stream in SK-N-SH cells, Phase 2 (lowering of intracellular calcium concentration). In kind it is cell-based. Conditions: Homo sapiens, 10 μM histamine, Fura 2 AM, Phase 2: discharge of intraplasmatic calcium.
As usually defined, the EC50 is the concentration that produces a half-maximal response. Regarding `CN1CCc2c(c3ccccc3n2/C=C\c2ccccc2)C1` [1.1(1), cis-2-methyl-5-(2-phenylethenyl)-2,3,4,5-tetrahydro-1H-pyrido[4,3-b]indole], the EC50 was 0.18 µM. `CN1CCc2c(c3ccccc3n2/C=C/c2ccccc2)C1` [1.1(2), trans-2-methyl-5-(2-phenylethenyl)-2,3,4,5-tetrahydro-1H-pyrido[4,3-b]indole]: the half-maximal effective concentration (EC50) came out at 2.13 µM. On to `CN1CCc2c(c3ccccc3n2/C=C/c2ccncc2)C1` [1.1(3), trans-2-methyl-5-[2-(pyridin-4-yl)ethenyl]-2,3,4,5-tetrahydro-1H-pyrido[4,3-b]indole], for which the EC50 was > 10 µM.

Take `CN1CCc2c(c3ccccc3n2/C=C\c2cccnc2)C1` [1.1(4), cis-2-methyl-5-[2-(pyridin-3-yl)ethenyl]-2,3,4,5-tetrahydro-1H-pyrido[4,3-b]indole]: the concentration giving a half-maximal response (EC50) was > 10 µM. On the same count and under the same terms, then `CN1CCc2c(c3ccccc3n2/C=C/c2ccccn2)C1` [1.1(5), trans-2-methyl-5-[2-(pyridin-2-yl)ethenyl]-2,3,4,5-tetrahydro-1H-pyrido[4,3-b]indole], with > 10 µM; and `CN1CCc2c(c3cc(F)ccc3n2/C=C\c2ccccc2)C1` [1.1.1(1), cis-2-methyl-5-(2-phenylethenyl)-8-fluoro-2,3,4,5-tetrahydro-1H-pyrido[4,3-b]indole], with 0.15 µM; and `CN1CCc2c(c3cc(F)ccc3n2/C=C\c2cccnc2)C1` [1.1.1(2), cis-2-methyl-5-[2-(pyridin-3-yl)ethenyl]-8-fluoro-2,3,4,5-tetrahydro-1H-pyrido[4,3-b]indole], with > 10 µM.

`Cc1ccc2c(c1)c1c(n2/C=C\c2ccccc2)CCN(C)C1` [1.1.1(3), cis-2,8-dimethyl-5-(2-phenylethenyl)-2,3,4,5-tetrahydro-1H-pyrido[4,3-b]indole]: the concentration giving a half-maximal response (EC50) came out at 0.154 µM. The same measure, in the same setting: the value for `CN1CCc2c(c3cc(F)ccc3n2/C=C\c2cccc(F)c2)C1` [1.1.1(6), cis-2-methyl-5-[2-(3-fluorophenyl)ethenyl]-8-fluoro-2,3,4,5-tetrahydro-1H-pyrido[4,3-b]indole] was 0.19 µM; that for `CN1CCc2c(c3ccccc3n2CCc2ccncc2)C1` [1.2(2)HCl, 2-methyl-5-[2-(pyridin-4-yl)ethyl]-2,3,4,5-tetrahydro-1H-pyrido[4,3-b]indole hydrochloride] was 0.5 µM. Turning to `CN1CCc2c(c3ccccc3n2CCc2cccnc2)C1` [1.2(3)HCl, 2-methyl-5-[2-(pyridin-3-yl)ethyl]-2,3,4,5-tetrahydro-1H-pyrido[4,3-b]indole hydrochloride], the EC50 was found to be 0.412 µM. As for `CN1CCc2c(c3ccccc3n2CCc2ccccn2)C1` [1.2(4)HCl, 2-methyl-5-[2-(pyridin-2-yl)ethyl]-2,3,4,5-tetrahydro-1H-pyrido[4,3-b]indole hydrochloride], the concentration giving a half-maximal response (EC50) was 0.93 µM. With `Cc1ccc2c(c1)c1c(n2CCc2ccncc2)CCN(C)C1.Cl` [1.2.1(2)HCl, 2,8-dimethyl-5-[2-(pyridin-4-yl)ethyl]-2,3,4,5-tetrahydro-1H-pyrido[4,3-b]indole hydrochloride], the concentration giving a half-maximal response (EC50) stood at 3.98 µM. Take `Cc1ccc2c(c1)c1c(n2CCc2cccnc2)CCN(C)C1` [1.2.1(3)HCl, 2,8-dimethyl-5-[2-(pyridin-3-yl)ethyl]-2,3,4,5-tetrahydro-1H-pyrido[4,3-b]indole hydrochloride]: the EC50 amounted to 0.579 µM. For `Cc1ccc2c(c1)c1c(n2CCc2ccccn2)CCN(C)C1.Cl` [1.2.1(4)HCl, 2,8-dimethyl-5-[2-(pyridin-2-yl)ethyl]-2,3,4,5-tetrahydro-1H-pyrido[4,3-b]indole hydrochloride], the EC50 turned out to be 10 µM. With `Cc1ccc2c(c1)c1c(n2CCc2cnccn2)CCN(C)C1` [1.2.1(6), 2,8-dimethyl-5-[2-(pyrazin-2-yl)ethyl]-2,3,4,5-tetrahydro-1H-pyrido[4,3-b]indole], the concentration for a half-maximal effect (EC50) was found to be 7.94 µM. Take `CN1CCc2c(c3cc(F)ccc3n2CCc2ccccc2)C1` [1.2.1(7)HCl, 2-methyl-5-(2-phenylethyl)-8 fluoro-2,3,4,5-tetrahydro-1H-pyrido[4,3-b]indole hydrochloride]: the EC50 came out at 0.13 µM. On to `CN1CCc2c(c3cc(F)ccc3n2CCc2ccncc2)C1` [1.2.1(8)HCl, 2-methyl-5-[2-(pyridin-4-yl)ethyl]-8-fluoro-2,3,4,5-tetrahydro-1H-pyrido[4,3-b]indole hydrochloride], for which the EC50 was 0.47 µM. Take `CN1CCc2c(c3cc(F)ccc3n2CCc2cccnc2)C1` [1.2.1(9)HCl, 2-methyl-5-[2-(pyridin-3-yl)ethyl]-8-fluoro-2,3,4,5-tetrahydro-1H-pyrido[4,3-b]indole hydrochloride]: the half-maximal effective concentration (EC50) came out at 0.297 µM. As to `CN1CCc2c(c3cc(F)ccc3n2CCc2ccccn2)C1` [1.2.1(10)HCl, 2-methyl-5-[2-(pyridin-2-yl)ethyl]-8-fluoro-2,3,4,5-tetrahydro-1H-pyrido[4,3-b]indole hydrochloride], the EC50 was determined as 0.61 µM.

Regarding `Cc1ccc(CCn2c3c(c4cc(F)ccc42)CN(C)CC3)cn1` [1.2.1(11)HCl, 2-methyl-5-[2-(6-methylpyridin-3-yl)ethyl]-8-fluoro-2,3,4,5-tetrahydro-1H-pyrido[4,3-b]indole hydrochloride], the EC50 came to 0.73 µM. Consider `CN1CCc2c(c3cccc(F)c3n2CCc2ccccc2)C1` [1.2.2(1)HCl], for which the 50% effective concentration (EC50) is 0.25 µM. On the same count and under the same terms, the value for `CN1CCc2c(c3ccccc3n2C#Cc2ccccc2)C1` [1.3(1), 2-methyl-5-phenylethynyl-2,3,4,5-tetrahydro-1H-pyrido[4,3-b]indole] was 10.1 µM. With `CN1CCc2c(c3ccccc3n2C#Cc2cccnc2)C1` [1.3(3), 2-methyl-5-(pyridin-3-ylethynyl)-2,3,4,5-tetrahydro-1H-pyrido[4,3-b]indole], the EC50 is > 10 µM.

Take `CN1CCc2c(c3cc(F)ccc3n2C#Cc2cccnc2)C1` [1.3.1(3), 2-methyl-5-(pyridin-3-ylethynyl)-8-fluoro-2,3,4,5-tetrahydro-1H-pyrido[4,3-b]indole]: the concentration giving a half-maximal response (EC50) was > 10 µM. Take `Cc1ccc2c(c1)c1c(n2C#Cc2ccccc2)CCN(C)C1` [1.3.1(5), 2,8-dimethyl-5-phenylethynyl-2,3,4,5-tetrahydro-1H-pyrido[4,3-b]indole]: the half-maximal effective concentration (EC50) was > 10 µM.

In the case of `Cc1ccc2c(c1)c1c(n2C#Cc2cccnc2)CCN(C)C1` [1.3.1(7), 2,8-dimethyl-5-(pyridin-3-ylethynyl)-2,3,4,5-tetrahydro-1H-pyrido[4,3-b]indole], the concentration giving a half-maximal response (EC50) was > 10 µM.

Another assay concerns BALB/c male mice. Kind of assay: Passive Avoidance of Mice in a Shuttle Chamber, memory disturbed by scopolamine (Example 7). The note with it: scopolamine 0.3 mg/kg, injected 30 minutes before training. In kind it is in vivo. The protocol:
Example 7. […] A shuttle chamber (Ugo Basile, Italy) consisted of two sections was used. […] The sections were connected via a hole which could be shut with a vertical door. The floor was made of transverse metal bars on which DC current impulses could be fed. Experiments were carried out on aged male mice of line BALB/c weighing 20-24 grams. […] Each group consisted of at least 8 animals. The animals were placed in the light section, and the latent period of the first entry into the dark chamber was registered. Then the vertical door was closed and the animal was punished by 0.6 mA DC current for 3 seconds. After that the animal was carried back to its living cell. In 22-24 hours the same animal was placed in the light section of the shuttle chamber once again and the latent period before its entry into the dark section, the total time of its stay in the light section and the number of entries into the dark section were registered. Each observation lasted for 5 minutes. The experiment was carried out during the day time in an isolated laboratory using white noise at a level of about 70 decibel above the human hearing threshold. Scopolamine causes the disturbance of training (memory loss) which results in […]. The fact that 5-HT6 receptor antagonists can improve the learning ability that has been disturbed by scopolamine is regarded as evidence for their nootropic effect.
Regarding `Cc1ccc2c(c1)c1c(n2CCc2ccncc2)CCN(C)C1.Cl` [1.2.1(2)HCl, 2,8-dimethyl-5-[2-(pyridin-4-yl)ethyl]-2,3,4,5-tetrahydro-1H-pyrido[4,3-b]indole hydrochloride], the “nootropic action (passive avoidance, FIGS. 2-4)” value is “exhibit a nootropic action which is the most prominent”. On to `Cc1ccc2c(c1)c1c(n2CCc2ccccn2)CCN(C)C1.Cl` [1.2.1(4)HCl, 2,8-dimethyl-5-[2-(pyridin-2-yl)ethyl]-2,3,4,5-tetrahydro-1H-pyrido[4,3-b]indole hydrochloride], for which the “nootropic action (passive avoidance, FIGS. 2-4)” value was “exhibit a nootropic action which is the most prominent”.

The test system of another assay is BALB/c male mice. The assay is described as follows: Passive Avoidance of Mice in a Shuttle Chamber, scopolamine or MK-801 (Example 8). The note with it: scopolamine 0.3 mg/kg or MK-801 0.1 mg/kg. The class given is in vivo. The protocol:
Example 7. […] A shuttle chamber (Ugo Basile, Italy) consisted of two sections was used. […] The sections were connected via a hole which could be shut with a vertical door. The floor was made of transverse metal bars on which DC current impulses could be fed. Experiments were carried out on aged male mice of line BALB/c weighing 20-24 grams.
On the first day of the experiment 30 minutes before training the mice were injected intraintestinally with physiological solution of scopolamine (0.3 mg/kg) or scopolamine in combination with antagonists of 5-HT6 receptors 1.2.1(2)HCl, 1.2.1(4)HCl or 1.2.1(5)HCl. Each group consisted of at least 8 animals. The animals were placed in the light section, and the latent period of the first entry into the dark chamber was registered. Then the vertical door was closed and the animal was punished by 0.6 mA DC current for 3 seconds. After that the animal was carried back to its living cell. In 22-24 hours the same animal was placed in the light section of the shuttle chamber once again and the latent period before its entry into the dark section, the total time of its stay in the light section and the number of entries into the dark section were registered. Each observation lasted for 5 minutes.
The experiment was carried out in the same way as in example 7. On the first day 30 minutes before training the mice were injected intra-intestinally with a physiological solution of scopolamine (0.3 mg/kg) or MK-801(0.1 mg/kg).
For the molecule `O=S(=O)(c1ccccc1)c1cnc2c(N3CCNCC3)cccc2c1` [SB-742457], the “nootropic action (passive avoidance, FIGS. 5-10)” value was “inactive”.

The subject of a further assay is SHK male mice. The assay is described as follows: Recognition of New Objects by Mice Under Scopolamine and MK-801. In kind it is in vivo. Conditions: scopolamine 1 mg/kg and MK-801 0.2 mg/kg. The protocol:
The experiments were carried out in a closed cross shaped labyrinth which consisted of 4 peripheral sections connected with the central chamber via a 7×7 cm hole. The labyrinth was made of black plastic and its sections were of 14×14×14 cm size. The top cover of the labyrinth was transparent.
A mouse was placed in the central section of the labyrinth and allowed to investigate the environment. A mouse was considered to have entered a section once all of its four paws were inside the chamber. A test was considered to be completed when the mouse had moved 12 times between the sections, having made a total of 13 visits. The floor of the labyrinth was cleaned after each animal.
With each mouse the test was carried out twice with 1 hour interval.
During the first test, each section of the labyrinth contained a circular plastic cup of 3 cm height and 7 cm diameter. During the second test the cover in each of the two opposing sections was replaced by a conical glass bulb of 7 cm height and 4 cm across the bottom. The time that the mice spent in each section of the labyrinth was registered and the index of new object recognition was calculated as the ratio of the time spent in the sections with the bulbs to the time spent in all sections of the labyrinth. If no preference is given to the sections with new objects the index is 0.5.
When new objects appear the mice spend more time in the section containing them that results in an increased recognition index. Scopolamine (1 mg/kg) and MK-801 (0.2 mg/kg) disturbed learning (memory) that leads to lowering of the recognition index.
As for `O=S(=O)(c1ccccc1)c1cnc2c(N3CCNCC3)cccc2c1` [SB-742457], the “nootropic action (new object recognition, FIG. 13-14)” value was “nootropic action”. Same read-out and setting: the value for `CC12CC3CC(C)(C1)CC(N)(C3)C2` [memantine] was “nootropic action”.
